Results taken from patent US9278940B2, “Cyclic amines as bromodomain inhibitors” (Zenith Epigenetics Corp., priority 2012, dated 2016).

Tests used:
Human AML MV-4-11 cells = test: Inhibition of cell proliferation in MV4-11 cells; assay type: cell-based; parameters: key: Active: Compounds with an IC50 value less than 30 μM are deemed to be active.; Not Active: Compounds with an IC50 value less than 30 μM are deemed to be active; details: 72 hours
Protocol: MV4-11 cells: 96-well plates were seeded with 5×10^4 cells per well of exponentially growing human AML MV-4-11 (CRL-9591) cells and immediately treated with two-fold dilutions of test compounds, ranging from 30 μM to 0.2 μM. Triplicate wells were used for each concentration, as well as a media only and three DMSO control wells. The cells and compounds were incubated at 37° C., 5% CO2 for 72 hours before adding 20 μL of the CellTiter Aqueous One Solution (Promega) to each well and incubating at 37° C., 5% CO2 for an additional 3-4 hours. The absorbance was taken at 490 nm in a spectrophotometer and the percentage of proliferation relative to DMSO-treated cells was calculated after correction from the blank well. IC50 were calculated using the GraphPad Prism software.

hApoA-1 mRNA = test: Up-regulation of hApoA-1 mRNA transcription in Huh7 cells; assay type: cell-based, human; parameters: key: Active: Compounds with an EC170 value less than 30 μM are deemed to be active.; Not Active: Compounds with an EC170 value less than 30 μM are deemed to be active; details: 48 hrs treatment, ApoA-I mRNA
Protocol: In this example, ApoA-I mRNA in tissue culture cells was quantitated to measure the transcriptional up-regulation of ApoA-I when treated with a compound of the present disclosure.
Huh7 cells ([…] per well) were plated in a 96-well plate using 100 μL DMEM per well, (Gibco DMEM supplemented with penicillin/streptomycin and 10% FBS), 24 h before the addition of the compound of interest. After 48 hrs treatment, the spent media was removed from the Huh-7 cells and placed on ice (for immediate use) or at −80° C. (for future use) with the “LDH cytotoxicity assay Kit II” from Abcam. The cells remaining in the plate were rinsed with 100 μL PBS.
Then 85 μL of cell lysis solution was added to each well and incubated for 5-10 minutes at room temperature, to allow for complete cell lysis and detachment. mRNA was then prepared using the “mRNA Catcher PLUS plate” from Life Technologies, according to the protocol supplied. After the last wash, as much wash buffer as possible was aspirated without allowing the wells to dry. Elution Buffer (E3, 80 μL) was then added to each well. mRNA was then eluted by incubating the mRNA Catcher PLUS plate with Elution Buffer for 5 minutes at 68° C., and then 1 minute at 4° C. Catcher plates with mRNA eluted were kept on ice for use or stored at −80° C.
The eluted mRNA isolated was then used in a one-step real-time PCR reaction, using components of the Ultra Sense Kit together with Life Technologies primer-probe mixes. Real-time PCR data was analyzed, using the Ct values, to determine the fold induction of each unknown sample, relative to the control (that is, relative to the control for each independent DMSO concentration).
Compounds with an EC170 value less than 30 μM are deemed to be active.

c-myc = test: Inhibition of c-myc expression (mRNA, real-time PCR) in MV4-11 cells; assay type: cell-based; parameters: key: Active: Compounds with an IC50 value less than 30 μM were deemed to be active.; Not Active: Compounds with an IC50 value less than 30 μM were deemed to be active; details: Human AML MV4-11 cells, 3 hours
Protocol: MV4-11 cells (2.5×10^4 cells) were plated in 96 well U-bottom plates with test compound or DMSO (0.1%), and incubated for 3 hours at 37° C. Cells were then harvested by centrifugation, lysed, and mRNA was isolated using the mRNA catcher plus kit (Invitrogen). Reverse transcription of the mRNA and duplex amplification of the c-myc and cyclophilin cDNAs was performed using the RNA Ultrasense kit (Invitrogen) and a ViiA7 real-time PCR machine (Applied Biosystems). IC50 values were determined from a dose response curve.

hIL-6 mRNA = test: Inhibition of hIL-6 mRNA transcription in LPS-stimulated U937 macrophages; assay type: cell-based, human; parameters: key: Active: Compounds with an IC50 value less than 30 μM are deemed to be active.; Not Active: Compounds with an IC50 value less than 30 μM are deemed to be active; details: U937 cells differentiated with PMA, 1 h pretreatment, LPS 3 h
Protocol: In this example, hIL-6 mRNA in tissue culture cells was quantitated to measure the transcriptional inhibition of hIL-6 when treated with a compound of the present disclosure.
A human leukemic monocyte lymphoma cell line (U937) was plated (3.2×10^4 cells per well) in a 96-well plate in […] RPMI-1640 containing 10% FBS and penicillin/streptomycin, and differentiated into macrophages for 3 days in 60 ng/mL PMA ([…]) at 37° C. in 5% CO2 prior to the addition of the compound of interest. The cells were pretreated for 1 h with the test compound prior to stimulation with 1 ug/mL lipopolysaccharide from Escherichia coli. The cells were incubated at 37-C for 3 h before the cells were harvested. At time of harvest, the spent media was removed from the cells and the cells were rinsed in 200 μL PBS. Cell lysis solution (70 μL) was added the cells in each well and incubated for 5-10 min at room temperature, to allow for complete cell lysis and detachment. mRNA was then prepared using the “mRNA Catcher PLUS plate” (Invitrogen), according to the protocol supplied. After the last wash, as much wash buffer as possible was aspirated without allowing the wells to dry. Elution buffer (E3, 70 μL) was then added to each well. mRNA was then eluted by incubating the mRNA Catcher PLUS plate with Elution Buffer for 5 min at 68° C. and then immediately placing the plate on ice.
The eluted mRNA isolated was then used in a one-step quantitative real-time PCR reaction, using components of the Ultra Sense Kit together with Applied Biosystems primer-probe mixes. Real-time PCR data was analyzed, normalizing the Ct values for hIL-6 to an internal control, prior to determining the fold induction of each unknown sample, relative to the control.

Brd4 bromodomain 1 = target: T1, Brd4 bromodomain 1 (Homo sapiens, UniProt O60885); test: Inhibition of tetra-acetylated histone H4 binding to BET bromodomain (TR-FRET); parameters: key: Active: Compounds with an IC50 value less than 30 μM were deemed to be active.; Not Active: Compounds with an IC50 value less than 30 μM were deemed to be active; details: Brd4 bromodomain 1, tetra-acetylated histone H4 peptide
T1 construct: made in house; host or cells: E. coli BL21(DE3)
Protocol: Proteins were cloned and overexpressed with a N-terminal 6×His tag, then purified by nickel affinity followed by size exclusion chromatography. Briefly, E. coli BL21(DE3) cells were transformed with a recombinant expression vector encoding N-terminally Nickel affinity tagged bromodomains from Brd2, Brd3, Brd4. Cell cultures were incubated at 37° C. with shaking to the appropriate density and induced overnight with IPTG. The supernatant of lysed cells was loaded onto Ni-IDA column for purification. Eluted protein is pooled, concentrated and further purified by size exclusion chromatography. Fractions representing monomeric protein were pooled, concentrated, aliquoted, and frozen at −80° C. for use in subsequent experiments.
Binding of tetra-acetylated histone H4 and BET bromodomains was confirmed by a Time Resolved Fluorescence Resonance Energy Transfer (TR-FRET) method. N-terminally His-tagged bromodomains (200 nM) and biotinylated tetra-acetylated histone H4 peptide (25-50 nM, Millipore) were incubated in the presence of Europium Cryptate-labeled streptavidin (Cisbio Cat. #610SAKLB) and XL665-labeled monoclonal anti-His antibody (Cisbio Cat. #61HISXLB) in a white 96 well microtiter plate (Greiner). For inhibition assays, serially diluted test compound was added to these reactions in a 0.2% final concentration of DMSO. Final buffer concentrations were 30 mM HEPES pH 7.4, 30 mM NaCl, 0.3 mM CHAPS, 20 mM phosphate pH 7.0, 320 mM KF, 0.08% BSA). After 2 hours incubation at room temperature, the fluorescence by FRET was measured at 665 and 620 nm by a SynergyH4 plate reader (Biotek). The binding inhibitory activity was shown by a decrease in 665 nm fluorescence relative to 620 nm. IC50 values were determined from a dose response curve.

SMILES	cell proliferation activity (IC50 < 30 μM) (Human AML MV-4-11 cells)	melting point	c-myc activity (IC50 < 30 μM) (c-myc)	IL-6 activity (IC50 < 30 μM) (hIL-6 mRNA)	FRET activity (IC50 < 30 μM) (Brd4 bromodomain 1)	ApoA-1 activity (EC170 < 30 μM) (hApoA-1 mRNA)
COc1cc(OC)c2c(=O)[nH]c(-c3cccc(N4CCN(C(C)C)CC4)c3)nc2c1 [Example 1, 2-(3-(4-Isopropylpiperazin-1-yl)phenyl)-5,7-dimethoxyquinazolin-4(3H)-one]	Not Active	251 to 253 °C	Active	Active	Active	Active
COc1cc(-c2nc3cc(OC)cc(OC)c3c(=O)[nH]2)cc(N2CCN(C(C)C)CC2)c1 [Example 2, 2-(3-(4-Isopropylpiperazin-1-yl)-5-methoxyphenyl)-5,7-dimethoxyquinazolin-4(3H)-one]	Active	212 to 213 °C	Active	Active	Active	Active
COCCN1CCN(c2cccc(-c3nc4cc(OC)cc(OC)c4c(=O)[nH]3)n2)CC1 [Example 3, 5,7-Dimethoxy-2-(6-(4-(2-methoxyethyl)piperazin-1yl)pyridin-2-yl)quinazolin-4(3H)-one]	Active	99 to 101 °C	Active	Active	Active	Active
COc1cc(OC)c2c(=O)[nH]c(-c3cccc(N4CCN(CCO)CC4)n3)nc2c1 [Example 4, 2-(6-(4-(2-Hydroxyethyl)piperazin-1-yl)pyridin-2-yl)-5,7-dimethoxyquinazolin-4(3H)-one]	Active	175 to 177 °C	Active	Active	Active	Active

Now from value to molecule, other results behind:

cell proliferation activity (IC50 < 30 μM) (Human AML MV-4-11 cells)	melting point	c-myc activity (IC50 < 30 μM) (c-myc)	IL-6 activity (IC50 < 30 μM) (hIL-6 mRNA)	FRET activity (IC50 < 30 μM) (Brd4 bromodomain 1)	SMILES	ApoA-1 activity (EC170 < 30 μM) (hApoA-1 mRNA)
Active	188 to 189 °C	Active	Active	Active	COc1cc(OC)c2c(=O)[nH]c(-c3cccc(N4CCN(CC(C)C)CC4)n3)nc2c1 [Example 5, 2-(6-(4-Isobutylpiperazin-1-yl)pyridin-2-yl)-5,7-dimethoxyquinazolin-4(3H)-one]	Active
Active	202 to 204 °C	Active	Active	Active	COc1cc(OC)c2c(=O)[nH]c(-c3cccc(N4CCN(C(C)CO)CC4)n3)nc2c1 (stereo not shown) [Example 8, 2-(6-(4-(1-Hydroxypropan-2-yl)piperazin-1-yl)pyridin-2-yl)-5,7-dimethoxyquinazolin-4(3H)-one]	Active
Active	149 to 150 °C	Not Active	Not Active	Active	COc1cc(OC)c2c(=O)[nH]c(-c3cccc(N4CCN(C(C)C(N)=O)CC4)n3)nc2c1 (stereo not shown) [Example 9, 2-(4-(6-(5,7-Dimethoxy-4-oxo-3,4-dihydroquinazolin-2-yl)pyridin-2-yl)piperazin-1-yl)propanamide]	Active
–	241 °C (dec.)	–	Not Active	Active	COc1cc(OC)c2c(=O)[nH]c(-c3cccc(N4CCN(CCC(=O)O)CC4)n3)nc2c1 [Example 11, 3-(4-(6-(5,7-Dimethoxy-4-oxo-3,4-dihydroquinazolin-2-yl)pyridin-2-yl)piperazin-1-yl)propanoic acid]	Not Active
Active	208 to 210 °C	Active	Not Active	Active	COc1cc(OC)c2c(=O)[nH]c(-c3ccc(OC)c(N4CCN(C(C)C)CC4)n3)nc2c1 [Example 14, 2-(6-(4-Isopropylpiperazin-1-yl)-5-methoxypyridin-2-yl)-5,7-dimethoxyquinazolin-4(3H)-one]	Active
